Source: ChEMBL document CHEMBL1131296 (J Med Chem, 1998)

What was measured:
[1] = biological target: T1, Alpha-1A adrenergic receptor (Rattus norvegicus, UniProt P43140); assay: Antagonism of the norepinephrine induced contraction of rat isolated prostatic vas deferens.; format: functional; conditions: read-out: pA2 (converted)
T1 sequence (P43140 whole entry): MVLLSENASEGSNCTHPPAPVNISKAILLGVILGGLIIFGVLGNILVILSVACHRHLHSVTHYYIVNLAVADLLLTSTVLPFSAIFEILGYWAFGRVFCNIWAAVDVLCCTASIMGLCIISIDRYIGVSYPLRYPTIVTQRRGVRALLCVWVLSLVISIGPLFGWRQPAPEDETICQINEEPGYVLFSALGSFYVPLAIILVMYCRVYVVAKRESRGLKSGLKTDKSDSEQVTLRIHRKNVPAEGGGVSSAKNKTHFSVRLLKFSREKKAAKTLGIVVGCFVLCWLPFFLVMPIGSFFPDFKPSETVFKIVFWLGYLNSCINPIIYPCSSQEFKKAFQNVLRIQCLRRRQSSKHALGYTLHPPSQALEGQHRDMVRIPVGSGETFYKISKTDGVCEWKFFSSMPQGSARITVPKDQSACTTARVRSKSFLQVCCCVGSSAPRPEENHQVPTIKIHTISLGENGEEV

[2] = biological target: T2, Alpha-1D adrenergic receptor (Rattus norvegicus, UniProt P23944); assay: Antagonism of norepinephrine induced contraction of rat isolated thoracic aorta.; format: functional, tissue-based; conditions: read-out: pA2 (converted)
T2 sequence (P23944 whole entry): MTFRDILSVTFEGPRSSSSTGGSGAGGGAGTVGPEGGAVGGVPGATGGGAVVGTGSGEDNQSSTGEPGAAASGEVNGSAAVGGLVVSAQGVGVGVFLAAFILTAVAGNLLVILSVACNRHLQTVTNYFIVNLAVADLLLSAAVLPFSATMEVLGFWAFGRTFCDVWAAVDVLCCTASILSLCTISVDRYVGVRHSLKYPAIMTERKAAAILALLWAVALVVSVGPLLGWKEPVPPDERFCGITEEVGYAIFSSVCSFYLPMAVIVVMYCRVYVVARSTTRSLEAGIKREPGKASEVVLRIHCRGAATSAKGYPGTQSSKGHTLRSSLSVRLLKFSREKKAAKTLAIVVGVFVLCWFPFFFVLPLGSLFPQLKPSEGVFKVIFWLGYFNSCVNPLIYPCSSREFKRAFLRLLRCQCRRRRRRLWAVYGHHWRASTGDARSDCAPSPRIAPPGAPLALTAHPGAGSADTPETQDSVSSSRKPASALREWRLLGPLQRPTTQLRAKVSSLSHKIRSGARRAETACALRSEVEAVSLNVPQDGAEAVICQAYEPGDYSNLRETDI

[3] = biological target: T3, Alpha-1B adrenergic receptor (Rattus norvegicus, UniProt P15823); assay: Antagonism of phenylephrine stimulated contraction of the rat isolated spleen.; format: functional, tissue-based; conditions: read-out: pA2 (converted)
T3 sequence (P15823 whole entry): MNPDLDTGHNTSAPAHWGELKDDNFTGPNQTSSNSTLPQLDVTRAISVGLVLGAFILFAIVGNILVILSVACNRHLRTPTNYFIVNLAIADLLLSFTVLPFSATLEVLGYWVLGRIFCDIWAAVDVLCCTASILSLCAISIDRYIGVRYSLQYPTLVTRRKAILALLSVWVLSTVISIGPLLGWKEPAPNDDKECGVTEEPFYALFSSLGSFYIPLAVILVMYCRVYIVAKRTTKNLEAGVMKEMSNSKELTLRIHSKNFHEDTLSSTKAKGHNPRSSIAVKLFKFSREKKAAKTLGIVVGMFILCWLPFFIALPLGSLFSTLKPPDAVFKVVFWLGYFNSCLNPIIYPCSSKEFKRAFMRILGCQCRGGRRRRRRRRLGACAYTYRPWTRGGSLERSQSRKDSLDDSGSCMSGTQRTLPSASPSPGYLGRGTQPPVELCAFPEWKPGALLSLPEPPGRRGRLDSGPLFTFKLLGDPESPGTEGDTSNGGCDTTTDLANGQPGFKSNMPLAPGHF

[4] = biological target: T4, Adrenergic receptor alpha-2 (Rattus norvegicus, UniProt P22086+P19328+P22909); assay: Antagonism of the clonidine-induced depression of twitch responses of rat isolated prostatic vas deferens.
T4 sequence (P22086 whole entry): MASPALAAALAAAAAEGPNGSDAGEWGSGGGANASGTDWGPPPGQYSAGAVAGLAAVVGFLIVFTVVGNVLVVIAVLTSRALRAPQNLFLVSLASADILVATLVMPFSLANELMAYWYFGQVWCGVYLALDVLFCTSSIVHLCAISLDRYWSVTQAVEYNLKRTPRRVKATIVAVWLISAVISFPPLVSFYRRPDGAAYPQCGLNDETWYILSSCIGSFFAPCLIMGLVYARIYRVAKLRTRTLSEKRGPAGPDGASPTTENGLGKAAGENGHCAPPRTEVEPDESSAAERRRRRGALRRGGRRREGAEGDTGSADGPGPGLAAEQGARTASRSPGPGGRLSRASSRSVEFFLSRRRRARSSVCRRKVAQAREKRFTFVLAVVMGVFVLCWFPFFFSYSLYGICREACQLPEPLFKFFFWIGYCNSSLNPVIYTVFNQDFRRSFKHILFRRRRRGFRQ
T4 sequence (P19328 whole entry): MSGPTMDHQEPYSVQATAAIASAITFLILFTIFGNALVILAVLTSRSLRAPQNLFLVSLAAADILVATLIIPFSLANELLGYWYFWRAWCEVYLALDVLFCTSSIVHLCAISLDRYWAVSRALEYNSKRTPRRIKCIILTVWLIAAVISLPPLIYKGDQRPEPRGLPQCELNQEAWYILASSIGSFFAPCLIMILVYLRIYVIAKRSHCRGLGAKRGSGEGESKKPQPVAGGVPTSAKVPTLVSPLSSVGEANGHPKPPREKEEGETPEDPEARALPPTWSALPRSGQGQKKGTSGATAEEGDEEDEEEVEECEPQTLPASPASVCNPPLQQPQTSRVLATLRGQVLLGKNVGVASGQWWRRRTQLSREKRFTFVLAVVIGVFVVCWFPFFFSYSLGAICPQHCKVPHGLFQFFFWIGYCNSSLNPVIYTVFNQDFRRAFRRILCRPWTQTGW
T4 sequence (P22909 whole entry): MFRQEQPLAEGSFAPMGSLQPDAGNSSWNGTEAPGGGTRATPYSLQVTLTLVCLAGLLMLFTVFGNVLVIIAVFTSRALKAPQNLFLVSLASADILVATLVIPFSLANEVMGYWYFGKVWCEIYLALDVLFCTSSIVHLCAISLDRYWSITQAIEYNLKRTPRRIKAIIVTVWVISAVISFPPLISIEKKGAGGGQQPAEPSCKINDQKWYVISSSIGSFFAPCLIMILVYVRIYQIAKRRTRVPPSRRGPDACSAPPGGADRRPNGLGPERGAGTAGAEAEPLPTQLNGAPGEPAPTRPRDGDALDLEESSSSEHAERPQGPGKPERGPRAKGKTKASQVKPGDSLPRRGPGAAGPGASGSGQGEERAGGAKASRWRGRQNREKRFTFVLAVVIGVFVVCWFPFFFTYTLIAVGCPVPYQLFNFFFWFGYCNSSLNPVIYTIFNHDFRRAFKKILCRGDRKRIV

[5] = biological target: T5, Alpha-1B adrenergic receptor (Homo sapiens, UniProt P35368); assay: Binding affinity at human cloned Alpha-1B adrenergic receptor in chinese hamster ovary cells by [3H]prazosin displacement.; format: cell-based, CHO
T5 sequence (P35368 whole entry): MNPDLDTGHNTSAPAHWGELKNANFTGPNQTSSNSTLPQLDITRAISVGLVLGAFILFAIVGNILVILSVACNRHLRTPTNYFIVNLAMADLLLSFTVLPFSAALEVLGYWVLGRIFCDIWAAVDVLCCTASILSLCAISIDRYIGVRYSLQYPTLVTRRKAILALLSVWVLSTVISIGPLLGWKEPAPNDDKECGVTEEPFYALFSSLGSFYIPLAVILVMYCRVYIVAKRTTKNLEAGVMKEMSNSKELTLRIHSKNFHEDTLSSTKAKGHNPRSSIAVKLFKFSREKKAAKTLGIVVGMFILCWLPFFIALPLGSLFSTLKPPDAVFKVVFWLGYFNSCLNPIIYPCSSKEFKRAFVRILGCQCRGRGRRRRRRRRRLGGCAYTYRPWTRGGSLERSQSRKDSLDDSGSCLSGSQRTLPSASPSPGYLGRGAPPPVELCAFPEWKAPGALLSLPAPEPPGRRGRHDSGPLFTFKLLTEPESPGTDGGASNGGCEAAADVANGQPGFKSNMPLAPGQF

## COc1cc2nc(N(C)CCCCCCN(C)C(=O)c3ccccc3CN(C)C)nc(N)c2cc1OC
[1]
  Kb: 91.2 nM
[2]
  Kb: 5.5 nM
[3]
  Kb: 13.2 nM
[4]
  pA2: < 5

## COc1cc2nc(N(C)CCCCCCN(C)C(=O)c3ccc(CCl)o3)nc(N)c2cc1OC
[1]
  Kb: 6.76 nM
[2]
  Kb: 0.407 nM
[3]
  Kb: 1.07 nM
[4]
  pA2: < 5

## CNCCCCCCN(C)Cc1cccc(C(=O)N(C)CCCCCCN(C)c2nc(N)c3cc(OC)c(OC)cc3n2)c1
[1]
  Kb: 8.91 nM
[2]
  Kb: 14.5 nM
[3]
  Kb: 19.5 nM
[4]
  pA2: < 5

## COc1cc2nc(N(C)CCCCCCN(C)C(=O)c3ccc(CN4CCSC4)cc3)nc(N)c2cc1OC
[1]
  Kb: 58.9 nM
[2]
  Kb: 6.76 nM
[3]
  Kb: 9.77 nM
[4]
  pA2: < 5

## COc1cc2nc(N(C)CCCCCCN(C)C(=O)c3cccc(CCl)c3)nc(N)c2cc1OC
[1]
  Kb: 79.4 nM
[2]
  Kb: 51.3 nM
[3]
  Kb: 66.1 nM
[4]
  pA2: < 5

## COc1cc2nc(N(C)CCCCCCN(C)C(=O)c3ccc(CN(C)C)o3)nc(N)c2cc1OC
[1]
  Kb: 38.9 nM
[2]
  Kb: 5.89 nM
[3]
  Kb: 2.4 nM
[4]
  pA2: < 5

## COc1cc2nc(N(C)CCCCCCN(C)C(=O)c3ccc(CN(C)C)cc3)nc(N)c2cc1OC
[1]
  Kb: 72.4 nM
[2]
  Kb: 13.8 nM
[3]
  Kb: 2.95 nM
[4]
  pA2: 5.12

## CNCCCCCCN(C)Cc1ccc(C(=O)N(C)CCCCCCN(C)c2nc(N)c3cc(OC)c(OC)cc3n2)cc1
[1]
  Kb: 191 nM
[2]
  Kb: 3.47 nM
[3]
  Kb: 0.617 nM
[4]
  pA2: 5.6

## COc1cc2nc(N(C)CCCCCCN(C)C(=O)c3cccc(CN)c3)nc(N)c2cc1OC
[1]
  Kb: 47.9 nM
[2]
  Kb: 2.04 nM
[3]
  Kb: 2.45 nM
[4]
  pA2: 5.44

## COc1cc2nc(N(C)CCSSCCN(C)C(=O)c3ccc(CN(C)C)o3)nc(N)c2cc1OC
[1]
  Kb: 200 nM
[2]
  Kb: 6.03 nM
[3]
  Kb: 53.7 nM
[4]
  pA2: < 5

## COc1cc2nc(N(C)CCCCCCN(C)C(=O)c3ccccc3CNCCCCCCN)nc(N)c2cc1OC
[1]
  Kb: 10.7 nM
[2]
  Kb: 3.16 nM
[3]
  Kb: 0.676 nM
[4]
  pA2: 5.47

## COc1cc2nc(N(C)CCCCCCN(C)C(=O)c3ccccc3)nc(N)c2cc1OC
[1]
  Kb: 38 nM
[2]
  Kb: 6.92 nM
[3]
  Kb: 0.447 nM
[4]
  pA2: 6.52

## COc1cc2nc(N(C)CCCCCCN(C)C(=O)c3ccc(CCl)cc3)nc(N)c2cc1OC
[1]
  Kb: 77.6 nM
[2]
  Kb: 19.5 nM
[3]
  Kb: 0.708 nM
[4]
  pA2: 5.54

## COc1cc2nc(N(C)CCCCCCN(C)C(=O)c3cccc(CN4CCSC4)c3)nc(N)c2cc1OC
[1]
  Kb: 15.1 nM
[2]
  Kb: 3.09 nM
[3]
  Kb: 9.33 nM
[4]
  pA2: 5.94

## COc1cc2nc(N(C)CCCCCCN(C)C(=O)c3ccccc3CCl)nc(N)c2cc1OC
[1]
  Kb: 417 nM
[2]
  Kb: 2.82 nM
[3]
  Kb: 1.86 nM
[4]
  pA2: 5.31

## COc1cc2nc(N(C)CCSSCCN(C)C(=O)c3ccc(CCl)o3)nc(N)c2cc1OC
[1]
  Kb: 16.6 nM
[2]
  Kb: 9.33 nM
[3]
  Kb: 42.7 nM
[4]
  pA2: < 5

## COc1ccccc1N1CCN(CCN2C(=O)CC3(CCCC3)CC2=O)CC1 [BMY-7378]
[5]
  Ki: 64.6 nM
[4]
  pA2: < 5
